Experiments:
A3 adenosine receptor = target: T1, A3 adenosine receptor (Homo sapiens, UniProt P0DMS8); experiment: Radioligand binding competition, A3 AdoR (125I-AB-MECA), membranes of HEK-A3 or CHO-A3 cells
T1 construct: expressed in transfected cells; host or cells: HEK-293 or CHO cells (HEK-A3 or CHO-A3), membranes
T1 sequence (P0DMS8 1-318): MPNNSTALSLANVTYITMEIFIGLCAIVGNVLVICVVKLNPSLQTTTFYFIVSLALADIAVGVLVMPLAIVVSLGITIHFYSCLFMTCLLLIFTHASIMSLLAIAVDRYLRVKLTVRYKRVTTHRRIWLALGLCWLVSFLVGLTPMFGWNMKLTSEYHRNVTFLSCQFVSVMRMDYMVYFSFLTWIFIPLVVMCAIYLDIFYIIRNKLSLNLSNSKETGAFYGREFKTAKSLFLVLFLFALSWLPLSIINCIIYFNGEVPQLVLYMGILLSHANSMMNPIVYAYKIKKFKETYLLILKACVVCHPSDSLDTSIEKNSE
Method: The cDNAs for human A1, A2A, A2B or A3 AdoRs were prepared by RT-PCR from total RNA of human cells or tissues and sequenced on both strands. The expression vector containing each of these cDNAs and a second vector containing a neomycin or puromycin-resistance gene were introduced to HEK-293 or CHO cells by Lipofectin-Plus (Life Technology). Colonies were selected by growing transfected cells in the presence of neomycin or puromycin. Stably transfected cells were maintained in Dulbecco's modified Eagle's medium (DMEM) or F-12 medium with 10% fetal bovine serum, 100 μg/ml penicillin, 100 μg/ml streptomycin and appropriate concentrations of neomycin or puromycin. These stably transfected cells were referred to as HEK-“AdoR” or CHO-“AdoR” depending on the receptors that they express. For example, cells that were transfected with A3 AdoRs were referred to as HEK-A3 or CHO-A3.
Monolayers of transfected cells were washed with phosphate buffered saline (PBS) and harvested in a buffer containing 10 mM HEPES (pH 7.4), 10 mM EDTA and protease inhibitors. The cells were homogenized in polytron for 1 minute at setting 4 and centrifuged at 29000 g for 15 minutes at 4° C. The cell pellets were washed with a buffer containing 10 mM HEPES (pH7.4), 1 mM EDTA and protease inhibitors, and were resuspended in the same buffer supplemented with 10% sucrose. Frozen aliquots were kept at −80° C.
The affinities of compounds for A1, A2A, A2B or A3 AdoRs were determined in competition studies using radioligands such as ^3H-CPX (A1 antagonist), or ^3H-CCPA (A1 agonist), ^3H-ZM241385 (A2A antagonist) or ^3H-CGS21680 (A2A agonist), ^3H-ZM241385 (A2B antagonist) or ^125I-AB-MECA (A3 agonist) and membranes of corresponding transfected cells. For example, to determine the affinity for A3 AdoRs, the competition assays were started by mixing 0.2 nM ^125I-AB-MECA with various concentrations of test compounds and 25 ug membrane proteins of HEK-A3 or CHO-A3 in TEM buffer (50 mM Tris, 1 mM EDTA and 10 mM MgCl2) supplemented with 1 U/ml adenosine deaminase. The assays were incubated for 90 minutes, stopped by filtration onto GF/B filter plates using Packard Harvester and washed four times with ice-cold TM buffer (10 mM Tris, 1 mM MgCl2, pH 7.4). The amounts of radioligands that bound to the GF/B filter plates were determined by scintillation counting. Nonspecific binding was determined in the presence of 10 μM R-PIA (phenylisopropyladenosine) or 1 μM IB-MECA. Bmax and KD values were calculated using GraphPad software.

A1 adenosine receptor = target: T2, A1 adenosine receptor (Homo sapiens, UniProt P30542); experiment: Radioligand binding competition, A1 AdoR (3H-CPX or 3H-CCPA), membranes of transfected cells; settings: Table 2
T2 construct: expressed in transfected cells; host or cells: HEK-293 or CHO cells, membranes
T2 sequence (P30542 1-326): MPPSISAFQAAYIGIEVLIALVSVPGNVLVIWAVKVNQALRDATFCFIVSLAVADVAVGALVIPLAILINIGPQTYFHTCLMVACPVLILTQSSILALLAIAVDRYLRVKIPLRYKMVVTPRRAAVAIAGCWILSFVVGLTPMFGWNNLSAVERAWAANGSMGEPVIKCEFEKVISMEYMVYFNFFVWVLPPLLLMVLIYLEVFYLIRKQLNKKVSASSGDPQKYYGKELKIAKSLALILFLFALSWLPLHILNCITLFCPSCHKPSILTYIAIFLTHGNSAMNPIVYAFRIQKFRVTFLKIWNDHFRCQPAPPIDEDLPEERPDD
Method: (§1) The cDNAs for human A1, A2A, A2B or A3 AdoRs were prepared by RT-PCR from total RNA of human cells or tissues and sequenced on both strands. The expression vector containing each of these cDNAs and a second vector containing a neomycin or puromycin-resistance gene were introduced to HEK-293 or CHO cells by Lipofectin-Plus (Life Technology). Colonies were selected by growing transfected cells in the presence of neomycin or puromycin. Stably transfected cells were maintained in Dulbecco's modified Eagle's medium (DMEM) or F-12 medium with 10% fetal bovine serum, 100 μg/ml penicillin, 100 μg/ml streptomycin and appropriate concentrations of neomycin or puromycin. […]
(§2) The affinities of compounds for A1, A2A, A2B or A3 AdoRs were determined in competition studies using radioligands such as ^3H-CPX (A1 antagonist), or ^3H-CCPA (A1 agonist), ^3H-ZM241385 (A2A antagonist) or ^3H-CGS21680 (A2A agonist), ^3H-ZM241385 (A2B antagonist) or ^125I-AB-MECA (A3 agonist) and membranes of corresponding transfected cells. […] The amounts of radioligands that bound to the GF/B filter plates were determined by scintillation counting. Nonspecific binding was determined in the presence of 10 μM R-PIA (phenylisopropyladenosine) or 1 μM IB-MECA. Bmax and KD values were calculated using GraphPad software.

A2A adenosine receptor = target: T3, A2A adenosine receptor (Homo sapiens, UniProt P29274); experiment: Radioligand binding competition, A2A AdoR (3H-ZM241385 or 3H-CGS21680), membranes of transfected cells; settings: Table 2
T3 construct: expressed in transfected cells; host or cells: HEK-293 or CHO cells, membranes
Method: as §1, §2

[1] = Table 1, 0.2 nM 125I-AB-MECA, HEK-A3 or CHO-A3 membranes
[2] = Table 2, 125I-AB-MECA competition

T3 sequence (P29274 whole entry): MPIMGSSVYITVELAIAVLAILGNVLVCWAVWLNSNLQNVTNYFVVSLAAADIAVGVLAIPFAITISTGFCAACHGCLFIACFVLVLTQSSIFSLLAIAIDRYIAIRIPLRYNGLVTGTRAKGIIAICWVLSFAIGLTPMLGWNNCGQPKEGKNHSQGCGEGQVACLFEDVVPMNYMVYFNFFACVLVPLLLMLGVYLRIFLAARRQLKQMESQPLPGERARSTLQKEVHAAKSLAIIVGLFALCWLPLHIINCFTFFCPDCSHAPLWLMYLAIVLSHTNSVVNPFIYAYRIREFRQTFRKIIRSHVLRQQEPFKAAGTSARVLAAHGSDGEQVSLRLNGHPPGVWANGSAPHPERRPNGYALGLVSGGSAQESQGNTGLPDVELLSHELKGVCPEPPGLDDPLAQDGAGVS

Compound	Ki (A3 adenosine receptor; [1])	other results
CCn1c(-n2cccn2)nc2c(N)nc(NCc3ccccc3)nc21 [(6-amino-9-ethyl-8-pyrazolylpurin-2-yl)benzylamine]	7 nM	–
CCn1c(-n2cc(-c3cccc(C(F)(F)F)c3)cn2)nc2c(N)nc(NCc3ccccc3)nc21 [(6-amino-9-ethyl-8-{4-[3-(trifluoromethyl)phenyl]pyrazolyl}purin-2-yl)benzylamine]	1480 nM	–
CCn1c(-n2cc(C)cn2)nc2c(NC(=O)C(C)(C)C)nc(NCc3ccccc3)nc21 [N-{9-ethyl-8-(4-methylpyrazolyl)-2-[benzylamino]purin-6-yl}-2,2-dimethylpropanamide]	18.6 nM	–
CCn1c(-n2cc(C)cn2)nc2c(N)nc(NCc3ccccc3)nc21 [[6-amino-9-ethyl-8-(4-methylpyrazolyl)purin-2-yl]benzylamine]	2 nM	Ki (A1 adenosine receptor): 225 nM; Ki (A2A adenosine receptor): 2040 nM
(6-amino-9-propyl-8-pyrazolylpurin-2-yl)(2-phenylethyl)amine	52 nM	–
(6-amino-9-propyl-8-pyrazolylpurin-2-yl)[2-(2,5-dimethoxyphenyl)ethyl]amine	112 nM	–
(6-amino-9-propyl-8-pyrazolylpurin-2-yl)[2-(3-fluorophenyl)ethyl]amine	82 nM	–
(6-amino-9-propyl-8-pyrazolylpurin-2-yl)[2-(4-fluorophenyl)ethyl]amine	210 nM	–
((1S)-1-phenylethyl)[6-amino-8-(4-methylpyrazolyl)-9-propylpurin-2-yl]amine	–	Ki (A3 adenosine receptor; [2]): 0.9 nM
N-{2-[(2-phenylethyl)amino]-9-propyl-8-pyrazolylpurin-6-yl}[3-(trifluoromethyl)phenyl]carboxamide	910 nM	–
N-{2-[(2-phenylethyl)amino]-9-propyl-8-pyrazolylpurin-6-yl}[4-(trifluoromethyl)phenyl]carboxamide	3120 nM	–
N-{9-ethyl-2-[benzylamino]-8-pyrazolylpurin-6-yl}-2-methoxyacetamide	3 nM	Ki (A1 adenosine receptor): 3950 nM; Ki (A3 adenosine receptor; [2]): 3 nM

Reference: patent publication US20090099212A1, “A3 ADENOSINE RECEPTOR ANTAGONISTS” (priority 2007, published 2009)
